{
  "source": "paper PMC12251549",
  "about": "“Engineering a Radiohybrid PSMA Ligand with an Albumin-Binding Moiety and Pharmacokinetic Modulation via an Albumin-Binding Competitor for Radiotheranostics” (Molecules, 2025)",
  "test": "Biodistribution after intravenous co-injection of [125I]5 and [211At]6 (Table S2)",
  "format": "in vivo, normal mice (ddY)",
  "conditions": "normal mice, i.v.",
  "description": "[^67Ga]Ga-PSMA-617 (37 kBq) and [^125I]5 (37 kBq) or [^125I]5 (37 kBq) and [^211At]6 (37 kBq) were intravenously co-administered into three or four normal mice at each timepoint (6 weeks male ddY mice, 28–30 g, Japan SLC, Inc., Hamamatsu, Japan). Mice were sacrificed at 10 min, 1 h, 4 h, and 24 h ([^67Ga]Ga-PSMA-617 and [^125I]5) or at 10 min, 1 h, 4 h, 12 h, and 24 h ([^125I]5 and [^211At]6) postinjection of the radiolabeled compounds. Tissues of interest were removed and weighed, and the radioactivity of ^67Ga and ^125I and ^125I and ^211At were determined with an auto well gamma counter (ARC-8001) and corrected for background radiation as described in the Cellular Uptake Experiments Section. To determine the amount and routes of the radioactivity excreted from the body for 24 h after the injection of radiolabeled compounds, mice were housed in metabolic cages (METABOLICA, SUGIYAMA-GEN Co., Ltd., Tokyo, Japan). Data are shown as the percentage of injected dose per gram of tissues (%ID/g) or %ID.",
  "data": [
    {"molecule": "O=C([O-])CN1CCN(CC(=O)[O-])CCN(CC(=O)NC(CCCCNC(=O)CCCc2ccc([125I])cc2)C(=O)NCC2CCC(C(=O)NC(Cc3ccc4ccccc4c3)C(=O)NCCCCC(NC(=O)NC(CCC(=O)O)C(=O)O)C(=O)O)CC2)CCN(CC(=O)[O-])CC1.[Ga+3]", "note": "(stereo not drawn) [[^125I]5]", "values": [
      {"measurement": "Biodistribution of radioactivity: L. Intestine", "setting": "10 min after injection", "result": "0.84 (0.07) % injected dose per gram"},
      {"measurement": "Biodistribution of radioactivity: Liver", "setting": "10 min after injection", "result": "3.56 (0.01) % injected dose per gram"},
      {"measurement": "Biodistribution of radioactivity: Lung", "setting": "10 min after injection", "result": "13.97 (2.31) % injected dose per gram"},
      {"measurement": "Biodistribution of radioactivity: Muscle", "setting": "10 min after injection", "result": "1.01 (0.09) % injected dose per gram"},
      {"measurement": "Biodistribution of radioactivity: Neck", "setting": "10 min after injection", "result": "0.06 (0.01) % injected dose"},
      {"measurement": "Biodistribution of radioactivity: Pancreas", "setting": "10 min after injection", "result": "2.73 (0.25) % injected dose per gram"},
      {"measurement": "Biodistribution of radioactivity: S. Intestine", "setting": "10 min after injection", "result": "1.63 (0.23) % injected dose per gram"},
      {"measurement": "Biodistribution of radioactivity: Spleen", "setting": "10 min after injection", "result": "2.78 (0.58) % injected dose per gram"},
      {"measurement": "Biodistribution of radioactivity: Stomach", "setting": "10 min after injection", "result": "1.12 (0.10) % injected dose"},
      {"measurement": "Biodistribution of radioactivity: Blood", "setting": "1 h after injection", "result": "15.32 (1.28) % injected dose per gram"},
      {"measurement": "Biodistribution of radioactivity: Bone", "setting": "1 h after injection", "result": "1.67 (0.13) % injected dose per gram"},
      {"measurement": "Biodistribution of radioactivity: Brain", "setting": "1 h after injection", "result": "0.33 (0.09) % injected dose per gram"},
      {"measurement": "Biodistribution of radioactivity: Heart", "setting": "1 h after injection", "result": "4.10 (0.15) % injected dose per gram"},
      {"measurement": "Biodistribution of radioactivity: Kidney", "setting": "1 h after injection", "result": "4.66 (0.50) % injected dose per gram"},
      {"measurement": "Biodistribution of radioactivity: L. Intestine", "setting": "1 h after injection", "result": "0.89 (0.15) % injected dose per gram"},
      {"measurement": "Biodistribution of radioactivity: Liver", "setting": "1 h after injection", "result": "2.32 (0.32) % injected dose per gram"},
      {"measurement": "Biodistribution of radioactivity: Lung", "setting": "1 h after injection", "result": "8.89 (2.09) % injected dose per gram"},
      {"measurement": "Biodistribution of radioactivity: Muscle", "setting": "1 h after injection", "result": "1.24 (0.08) % injected dose per gram"},
      {"measurement": "Biodistribution of radioactivity: Neck", "setting": "1 h after injection", "result": "0.15 (0.04) % injected dose"},
      {"measurement": "Biodistribution of radioactivity: Pancreas", "setting": "1 h after injection", "result": "1.86 (0.33) % injected dose per gram"},
      {"measurement": "Biodistribution of radioactivity: S. Intestine", "setting": "1 h after injection", "result": "1.62 (0.30) % injected dose per gram"},
      {"measurement": "Biodistribution of radioactivity: Spleen", "setting": "1 h after injection", "result": "1.79 (0.34) % injected dose per gram"},
      {"measurement": "Biodistribution of radioactivity: Stomach", "setting": "1 h after injection", "result": "1.29 (0.50) % injected dose"},
      {"measurement": "Biodistribution of radioactivity: Blood", "setting": "4 h after injection", "result": "12.08 (0.95) % injected dose per gram"},
      {"measurement": "Biodistribution of radioactivity: Bone", "setting": "4 h after injection", "result": "1.83 (0.61) % injected dose per gram"},
      {"measurement": "Biodistribution of radioactivity: Brain", "setting": "4 h after injection", "result": "0.29 (0.04) % injected dose per gram"},
      {"measurement": "Biodistribution of radioactivity: Heart", "setting": "4 h after injection", "result": "3.88 (0.13) % injected dose per gram"},
      {"measurement": "Biodistribution of radioactivity: Kidney", "setting": "4 h after injection", "result": "5.20 (0.25) % injected dose per gram"},
      {"measurement": "Biodistribution of radioactivity: L. Intestine", "setting": "4 h after injection", "result": "1.26 (0.30) % injected dose per gram"},
      {"measurement": "Biodistribution of radioactivity: Liver", "setting": "4 h after injection", "result": "1.50 (0.16) % injected dose per gram"},
      {"measurement": "Biodistribution of radioactivity: Lung", "setting": "4 h after injection", "result": "7.01 (1.68) % injected dose per gram"},
      {"measurement": "Biodistribution of radioactivity: Muscle", "setting": "4 h after injection", "result": "1.20 (0.07) % injected dose per gram"},
      {"measurement": "Biodistribution of radioactivity: Neck", "setting": "4 h after injection", "result": "0.27 (0.09) % injected dose"},
      {"measurement": "Biodistribution of radioactivity: Pancreas", "setting": "4 h after injection", "result": "1.57 (0.21) % injected dose per gram"},
      {"measurement": "Biodistribution of radioactivity: S. Intestine", "setting": "4 h after injection", "result": "1.28 (0.16) % injected dose per gram"},
      {"measurement": "Biodistribution of radioactivity: Spleen", "setting": "4 h after injection", "result": "1.54 (0.22) % injected dose per gram"},
      {"measurement": "Biodistribution of radioactivity: Stomach", "setting": "4 h after injection", "result": "0.94 (0.29) % injected dose"},
      {"measurement": "Biodistribution of radioactivity: Blood", "setting": "12 h after injection", "result": "11.77 (1.29) % injected dose per gram"},
      {"measurement": "Biodistribution of radioactivity: Bone", "setting": "12 h after injection", "result": "1.88 (0.25) % injected dose per gram"},
      {"measurement": "Biodistribution of radioactivity: Brain", "setting": "12 h after injection", "result": "0.34 (0.07) % injected dose per gram"},
      {"measurement": "Biodistribution of radioactivity: Heart", "setting": "12 h after injection", "result": "3.62 (0.39) % injected dose per gram"},
      {"measurement": "Biodistribution of radioactivity: Kidney", "setting": "12 h after injection", "result": "6.62 (0.34) % injected dose per gram"},
      {"measurement": "Biodistribution of radioactivity: L. Intestine", "setting": "12 h after injection", "result": "0.87 (0.13) % injected dose per gram"},
      {"measurement": "Biodistribution of radioactivity: Liver", "setting": "12 h after injection", "result": "1.59 (0.12) % injected dose per gram"},
      {"measurement": "Biodistribution of radioactivity: Lung", "setting": "12 h after injection", "result": "8.00 (1.24) % injected dose per gram"},
      {"measurement": "Biodistribution of radioactivity: Muscle", "setting": "12 h after injection", "result": "1.32 (0.07) % injected dose per gram"},
      {"measurement": "Biodistribution of radioactivity: Neck", "setting": "12 h after injection", "result": "0.12 (0.09) % injected dose"},
      {"measurement": "Biodistribution of radioactivity: Pancreas", "setting": "12 h after injection", "result": "1.75 (0.45) % injected dose per gram"},
      {"measurement": "Biodistribution of radioactivity: S. Intestine", "setting": "12 h after injection", "result": "1.08 (0.07) % injected dose per gram"},
      {"measurement": "Biodistribution of radioactivity: Spleen", "setting": "12 h after injection", "result": "1.75 (0.21) % injected dose per gram"},
      {"measurement": "Biodistribution of radioactivity: Stomach", "setting": "12 h after injection", "result": "0.68 (0.09) % injected dose"},
      {"measurement": "Biodistribution of radioactivity: Blood", "setting": "24 h after injection", "result": "8.71 (0.20) % injected dose per gram"},
      {"measurement": "Biodistribution of radioactivity: Bone", "setting": "24 h after injection", "result": "1.26 (0.12) % injected dose per gram"},
      {"measurement": "Biodistribution of radioactivity: Brain", "setting": "24 h after injection", "result": "0.22 (0.02) % injected dose per gram"},
      {"measurement": "Biodistribution of radioactivity: Heart", "setting": "24 h after injection", "result": "2.91 (0.21) % injected dose per gram"},
      {"measurement": "Biodistribution of radioactivity: Kidney", "setting": "24 h after injection", "result": "5.06 (0.61) % injected dose per gram"},
      {"measurement": "Biodistribution of radioactivity: L. Intestine", "setting": "24 h after injection", "result": "0.63 (0.09) % injected dose per gram"},
      {"measurement": "Biodistribution of radioactivity: Liver", "setting": "24 h after injection", "result": "1.29 (0.05) % injected dose per gram"},
      {"measurement": "Biodistribution of radioactivity: Lung", "setting": "24 h after injection", "result": "5.00 (0.75) % injected dose per gram"},
      {"measurement": "Biodistribution of radioactivity: Muscle", "setting": "24 h after injection", "result": "1.08 (0.08) % injected dose per gram"},
      {"measurement": "Biodistribution of radioactivity: Neck", "setting": "24 h after injection", "result": "0.17 (0.05) % injected dose"},
      {"measurement": "Biodistribution of radioactivity: Pancreas", "setting": "24 h after injection", "result": "1.35 (0.12) % injected dose per gram"},
      {"measurement": "Biodistribution of radioactivity: S. Intestine", "setting": "24 h after injection", "result": "0.69 (0.04) % injected dose per gram"},
      {"measurement": "Biodistribution of radioactivity: Spleen", "setting": "24 h after injection", "result": "1.21 (0.27) % injected dose per gram"},
      {"measurement": "Biodistribution of radioactivity: Stomach", "setting": "24 h after injection", "result": "0.55 (0.02) % injected dose"},
      {"measurement": "Biodistribution of radioactivity: Feces", "setting": "excreted for 24 h after injection (column not printed safely), Table S2", "result": "8.13 (1.09) % injected dose"}
    ]}
  ]
}
